The test system of data set [1] is 22Rv1 cells. The experiment in a line: MTS proliferation assay, 22Rv1 prostate cancer cells. In kind it is cell-based. As to the method: (§1) In a 96-well plate, each well was prepared to contain 50 uL of 50,000 cells in media (HyClone IMDM Modified+4 mM L-Glu, HEPES with 10% Fetal Bovine Serum) to which was added 50 uL media containing either the free nucleoside (cytarabine or gemcitabine) or the conjugate (compound 3 or 16) that achieved the following final concentrations: 0, 0.1, 0.2, 0.5, 1, 3, 10, or 100 uM. The cells were incubated at 37° C. with 5% CO2 for 24, 48 or 72 hours (data trends similarly for all incubation periods while the 48 hour data is shown). The Promega MTS based proliferation assay kit (Promega; CellTiter 96® AQueous Non-Radioactive Cell Proliferation Assay (MTS)) was used as per manufacturer's instructions. In short, to each well 100 uL of MTS/PMS reagent was added and allowed to incubate for approximately 2 hours at 37° C. to achieve a colorimetric indication of active cell metabolism. This was quantitated by reading the visible absorption at 415 nm. The data (FIG. 1) was normalized to the absorption range defined from minimal absorbance (media absent cells and drug present), to maximum absorbance (media with cells in the absence of drug). All points were measured in triplicate and averaged before normalization to a 0-100% range. Data was plotted (FIG. 1) as percent inhibition versus log of the compound concentration. Where sigmodial curve fitting was possible, a four-parameter logistic non-linear regression model equation was used to generate the curves and IC50 values. […] The pulse chase experiments shown in FIG. 2 were done as described above with the one alteration that at either the 10 or 60 time point after addition of drug the media was replaced with drug-free media and the cells were allowed to continue incubation for a total of 48 hours. […] Data points were collected in quintuplicate; error bars show standard deviations. […] Sigmodial curve fitting employed a four-parameter logistic non-linear regression model equation.
On the technique in general: Formazan colour is commonly taken as a measure of viable cells.

The nature of data set [2]: Conjugate stability in saline and growth media (HPLC). Format: physicochemical. Conditions: for stability in buffers and media: over the time course of experiments. As to the method:
The rapid release of nucleoside or nucleotide from the conjugate into the growth media appeared to be ruled out. To test for this event conjugate 3 was incubated in isotonic saline, sterile media or media that was conditioned by 3 days of cell growth. In conditioned media the cells were removed from the media by centrifugation and conjugate was added to the media and incubated at 37° C. for 0.25, 24 and 72 hours. Proteins and large molecules were removed via precipitation with a 5:4:1 v:v:v mixture of Acetonitrile:methanol:1% Formic acid and subsequent centrifugation. The supernatant (100 uL injection volume) was subjected to HPLC analysis on DNA Pac PA 200 (Dionex, USA) column in a gradient of 400 mM ammonium acetate in 20% acetonitrile (3-40% over 10 minutes).

Another data set deals with 5TGM1 cells. The data set can be described thus: MTS proliferation assay, multiple myeloma cell line. In kind it is cell-based, rodent. Conditions: 72 hours, FIG. 3. How it is done:
In a 96-well plate, each well was prepared to contain 50 uL of 50,000 5TGM1 cells in media (HyClone IMDM Modified+4 mM L-Glu, HEPES with 10% Fetal Bovine Serum) to which was added 50 uL media containing cytarabine or compound 3 (MU004-26) that achieved the following final concentrations: 0, 0.1, 0.2, 0.5, 1, 3, 10, or 100 uM. The cells were incubated at 37° C. with 5% CO2 for 24, 48 or 72 hours (data trends similarly for all incubation periods while the 72 hour data is shown). The Promega […] based proliferation assay kit was used as per manufacturer's instructions. In short, to each well 100 uL of MTS/PMS reagent was added and allowed to incubate for approximately 2 hours at 37° C. to achieve a colorimetric indication of active cell metabolism. This was quantitated by reading the visible absorption at 415 nm. The data (FIG. 3) was normalized to the absorption range defined from minimal absorbance—media absent cells and drug present, to maximum absorbance—media with cells in the absence of drug. All points were measured in triplicate and averaged before normalization to a 0-100% range. Data was plotted (FIG. 3) as percent inhibition versus log of the compound concentration. As the FIG. 3 illustrates the Cytarabine IC50=0.5 uM while the Conjugate IC50=1 uM.

The subject of data set [3] is 22Rv1 cells. The data set can be described thus: Pulse chase (10 or 60 minute exposure) MTS proliferation assay, 22Rv1. In kind it is cell-based. Conditions: 48 hours in fresh media. As to the method: as §1
This was tested for with a 10 or 60 minute pulsed exposure of 22Rv1 cells to compounds, followed by 48 hours of incubation in fresh media. […]

In another data set the test system is PC3 prostate cancer line. The experiment in a line: MTS proliferation assay, PC3 prostate cancer cells. Format: cell-based. Conditions: 48 hours, FIG. 1. As to the method: (§2) In a 96-well plate, each well was prepared to contain 50 uL of 50,000 cells in media (HyClone IMDM Modified+4 mM L-Glu, HEPES with 10% Fetal Bovine Serum) to which was added 50 uL media containing either the free nucleoside (cytarabine or gemcitabine) or the conjugate (compound 3 or 16) that achieved the following final concentrations: 0, 0.1, 0.2, 0.5, 1, 3, 10, or 100 uM. The cells were incubated at 37° C. with 5% CO2 for 24, 48 or 72 hours (data trends similarly for all incubation periods while the 48 hour data is shown). The Promega MTS based proliferation assay kit (Promega; CellTiter 96® AQueous Non-Radioactive Cell Proliferation Assay (MTS)) was used as per manufacturer's instructions. In short, to each well 100 uL of MTS/PMS reagent was added and allowed to incubate for approximately 2 hours at 37° C. to achieve a colorimetric indication of active cell metabolism. This was quantitated by reading the visible absorption at 415 nm. The data (FIG. 1) was normalized to the absorption range defined from minimal absorbance (media absent cells and drug present), to maximum absorbance (media with cells in the absence of drug). All points were measured in triplicate and averaged before normalization to a 0-100% range. Data was plotted (FIG. 1) as percent inhibition versus log of the compound concentration. […]

Another data set has as its system Capan2 cells. The data set can be described thus: Pulse chase (60 minute exposure) MTS proliferation assay, Capan2. In kind it is cell-based, human. Conditions: 60 minute pulse, all concentrations tested.
In data set [4] the test system is subcutaneous Capan-2 tumors. The experiment in a line: Mouse xenograft model of pancreatic cancer. Format: in vivo. Conditions: nude mice, Capan-2 subcutaneous, 20 mg/kg 3-times per week. As to the method: FIG. 4 illustrates the conjugate of vitamin B6 and gemcitabine is efficacious in a mouse model of human pancreatic cancer. In this model, immune compromised nude mice were injected subcutaneously with the human pancreatic cell line Capan-2 (˜10^6 cells/100 ul). After tumor growth was detected the animals were randomized and either administered the isotonic saline vehicle control alone or with the gemcitabine conjugate (20 mg/kg; 3-times per week).

Data set [5] has as its system pancreatic cell lines (Capan2, Panc1 and MiaPaca). The experiment in a line: MTS proliferation assay, pancreatic cancer cell lines. Format: cell-based. Conditions: 48 hours, FIG. 1. As to the method:
as §2

Molecules are shown by their SMILES. A value given as a limit tells only on which side of the number the result lay.

By IC50 is commonly meant the point on the concentration scale where inhibition reaches its midpoint. A higher IC50 goes with lower potency. As for `Cc1ncc(CO)c(CN[P@SP3](=O)(O)OC[C@H]2O[C@@H](n3ccc(N)nc3=O)C(O)C2O)c1O` (stereo partly drawn) [Compound 3, 5′-aracytidilic acid N-pyridoxylamide], the “fold more potent than araC” value in the data set on 22Rv1 cells [1] (48 hours, FIG. 1) is listed as over 10 fold. Also, the “release of free cytarabine or pyridoxamine (HPLC)” value in data set [2] (isotonic saline, sterile media or conditioned media, 37° C., 0.25, 24 and 72 hours) is on record as “neither free cytarabine nor free pyridoxamine (or any other pyridoxyl based compound) was detected”. Also, the “stability in buffers and media” value in data set [2] is recorded as “stable”. In addition, the IC50 with 5TGM1 cells was found to be 1000 nM.
In the data set with 5TGM1 cells, `Nc1ccn([C@@H]2O[C@H](CO)[C@@H](O)[C@@H]2O)c(=O)n1` [Cytarabine, reference compound] returned an IC50 of 500 nM.
In the data set with 22Rv1 cells [3] (100 uM pulse), `Nc1ccn([C@@H]2O[C@H](CO)[C@@H](O)C2(F)F)c(=O)n1` [Gemcitabine, 2′-Deoxy-2′,2′-difluorocytidine, reference compound] had a stimulation of proliferation of 10%. Also, the effect on proliferation result in the data set with 22Rv1 cells [1] (48 hour exposure, 0.1-10 uM) is given as “stimulated proliferation”. For the same molecule, the “sensitivity to parent drug relative to conjugate” value with PC3 prostate cancer line amounted to 3 fold.
With `Cc1ncc(CO)c(CNP(=O)(O)OC[C@H]2O[C@@H](n3ccc(N)nc3=O)C(F)(F)C2O)c1O` (stereo partly drawn) [Compound 16, N-pyridoxylamide of 2′-Deoxy-2′,2′-difluoro-5′-cytidylic acid], the “effect of pulse compared to free Gem” value in the data set with Capan2 cells is on record as “more rapid effect”. Besides, in the data set on 22Rv1 cells [3] (100 uM pulse for 60 minutes), the “decrease of proliferation beyond that of free gemcitabine” value came out at 40%. Also, the anti-proliferation after pulse result with 22Rv1 cells [3] (10 minute pulse) is on record as “measurable anti-proliferation”. In addition, the “fold more potent than Gem” value in the data set with 22Rv1 cells [1] (48 hours, FIG. 1) was “up to 7 fold”. The “tumor growth relative to untreated growth” value in data set [4] is recorded as “stabilized tumor growth”. Also, the “stability in buffers and media” value in data set [2] is given as “stable”. Besides, the “fold more potent than Gem alone” value in data set [5] is 2-100 fold.

For the origin of these results see patent US9334300B2, “Vitamin B6 derivatives of nucleotides, acyclonucleotides and acyclonucleoside phosphonates” (MBC PHARMA, INC., priority 2011, dated 2016).
